Measured values from patent US20170190744A1 (Vicuron Pharmaceuticals, Inc., priority 2015, published 2017).

Legend:
[1] = Pharmacokinetics in renal impairment and ESRD (VER001-3, VER001-11, VER001-13)
Description: Clinical Study VER001-13 examined subjects with mild and moderate renal impairment and Clinical Study VER001-11 examined subjects with severe renal impairment and subjects with end-stage renal disease (ESRD). Matched control subjects were enrolled in all studies. […] Subjects with ESRD were dependent on dialysis through the course of the study (3 times weekly).

S. aureus = assay: Phase II SSTI trial: microbiologic response, S. aureus; assay type: in vivo, human
Experimental: (§1) Microbiological outcome, a secondary efficacy variable, was assessed in the subpopulation of patients who had microbiologically documented SSTI (i.e., at least one identified baseline pathogen). A microbiologic response was assessed for each Gram-positive pathogen identified at baseline (i.e., eradication, presumed eradication, persistence, presumed persistence). For patients for whom follow-up cultures were not performed, the microbiologic responses for baseline pathogens were presumed on the basis of the clinical response. Microbiologic response by patient at the EOT and FU visits was graded as success (i.e., all Gram-positive organisms eradicated or presumed eradicated) or failure (i.e., at least one Gram-positive organism persisted or presumed to have persisted, multiple pathogens with partial eradication). At both the EOT and FU visits, colonization and superinfection were assessed. At the FU visit, a patient's bacteriological response could also include recurrence.

[2] = Pharmacokinetics and renal excretion in healthy subjects; assay type: in vivo, human; conditions: single 1000 mg IV
Experimental: Blood samples were drawn into heparinized tubes and centrifuged. Plasma was separated and stored frozen at −20° C. until time of assay. Plasma and urine samples were assayed for dalbavancin using validated LC/MS/MS methods. […] The peak concentration (Cmax) values were obtained directly from the observed data. The area under the plasma concentration-time curve (AUC) was calculated using the linear trapezoidal rule. Clearance (CL) was computed as dose/AUC. The elimination half life (t1/2) was estimated by linear regression of the log-linear portion of the log concentration versus time curve. Estimates of the volume of distribution (VZ) was calculated using the regression parameters, while the volume of distribution at steady state (Vss) was calculated from the area under the first moment curve (AUMC) multiplied by the dose and divided by AUC. The cumulative amount of dalbavancin excreted in urine was determined as the integrand of the urine excretion rate (AURC). CLR, or renal clearance, was calculated as the ratio: CLR=AURC/AUC.

human hepatic microsomes = assay type: in vitro ADME
[3] = Plasma pharmacokinetics in thigh-infected neutropenic mice; conditions: 2.5-80 mg/kg intraperitoneal
Experimental: Neutropenia in this and all other studies was produced by injections of cyclophosphamide, 150 mg/kg 4 days prior to study, 100 mg/kg 1 day prior to study and 100 mg/kg every 48 h after start of infection until end of study. […] Doses of 2.5, 5, 10, 20, 40, and 80 mg/kg were studied. Drug was administered by intraperitoneal injection of 0.2 ml volume. Blood was removed from groups of three mice by retroorbital aspiration into heparinized capillary tubes at 0.5, 1, 2, 4, 6, 24, 48, 72, and 96 hours after dosing. […] AUC was calculated by the trapezoidal rule from mean concentrations.

[4] = tested on: Gram-positive isolates, including MRSA; assay: Dalbavancin MIC of baseline Gram-positive pathogens (SSTI trial); assay type: cell-based; conditions: for Dalbavancin MIC, Miscellaneous Streptococcus and nontypeable strains: baseline isolates, MITT
Description: The most common pathogen was S. aureus.

[5] = tested on: methicillin-resistant S. aureus (MRSA); assay: Phase II SSTI trial: response in patients with MRSA (MITT); assay type: in vivo, human; conditions: MITT population
Experimental: The effectiveness of the three treatment regimens was determined by assessing the patients' clinical response and the documented or presumed microbiological responses. The primary efficacy endpoint was clinical response at the follow-up visit for the clinically evaluable population. Clinical response, for both EOT and FU visits, was categorized as success (cure or improvement) or failure (including indeterminate results). Patients classified as successes must not have received additional systemic antibacterial treatment for their infection. Failure was defined as persistence of one or more local or systemic signs and symptoms of SSTI such that treatment with new or additional systemic antibacterial agents was required for the SSTI.
as §1

[6] = in vivo
Experimental: Safety was evaluated by the collection and analysis of data on adverse events (AEs), clinical laboratory tests, physical examinations, vital signs, and ECGs.

[7] = Pharmacokinetics in hepatic impairment (VER001-12); assay type: in vivo, human; conditions: 1000 mg Day 1 and 500 mg Day 8, Mean (±SD)
Description: The study enrolled otherwise healthy subjects with mild, moderate, or severe hepatic impairment (Child-Pugh scores 5 to 6, 7 to 9, and 10 to 15, respectively) and matched control subjects with normal hepatic function.

[8] = Phase II SSTI trial: safety (adverse events); design: species or system human; conditions: in vivo
Experimental: Each patient who received at least one dose of study drug (ITT population) was evaluated for drug safety through monitoring of adverse events (AE), including abnormal clinical laboratory test results and vital signs. AE were rated by the investigator as to their severity (mild, moderate, severe, life-threatening), and by the relationship to the study drug (not related, unlikely related, possibly related, or probably related).

## CN[C@H]1C(=O)N[C@@H]2Cc3ccc(cc3)Oc3cc4cc(c3O[C@@H]3O[C@H](C(=O)O)[C@@H](O)[C@H](O)[C@H]3NC(=O)CCCCCCCCC(C)C)Oc3ccc(cc3Cl)[C@@H](O)[C@@H]3NC(=O)[C@H](NC(=O)[C@@H]4NC(=O)[C@@H](NC2=O)c2cc(cc(O)c2Cl)Oc2cc1ccc2O)c1ccc(O)c(c1)-c1c(O[C@H]2O[C@H](CO)[C@@H](O)[C@H](O)[C@@H]2O)cc(O)cc1[C@@H](C(=O)NCCCN(C)C)NC3=O [Dalbavancin]
[1]; ESRD Postdialysis, VER001-11, 500 mg
  t1/2: 14.5 days
[1]; ESRD Predialysis, VER001-11, 500 mg
  t1/2: 15.7 days
[1]; Mild Renal Impairment, VER001-13, 1000 mg
  t1/2: 16.2 days
[1]; Moderate Renal Impairment, VER001-13, 1000 mg
  t1/2: 18 days
[1]; Normal Renal Function, VER001-2, 1120 mg
  t1/2: 6.21 days
[1]; Normal Renal Function, VER001-11, 500 mg
  t1/2: 13.9 days
[1]; Normal Renal Function, VER001-13, 1000 mg
  t1/2: 17.4 days
[1]; Severe Renal Impairment, VER001-11, 500 mg
  t1/2: 18.9 days
[1]; Severe Renal Impairment, VER001-11, 1000 mg
  t1/2: 19.5 days
[1]; subjects with severe renal impairment (VER001-11)
  increase in concentrations through the first week post-dose vs normal renal function: 40%
S. aureus; single-dose dalbavancin
  S. aureus eradication rate at FU: 50%
S. aureus; two-dose dalbavancin
  S. aureus eradication rate at FU: 90%
[2]
  t1/2: 9 to 12 days
Human hepatic microsomes
  effect on metabolism of marker substrates: did not affect the metabolism of marker substrates
[3]
  half-life: 0.317 to 0.546 days
[4]; baseline isolates of the SSTI trial
  MICs against Gram-positive isolates, including MRSA (range): 0.016 to 0.25 mg/L
[4]; Single dose Dalbavancin (1100 mg) arm
  Dalbavancin MIC, Miscellaneous Streptococcus and nontypeable strains: (0.016)
[4]; Two-dose Dalbavancin (1000/500 mg) arm
  Dalbavancin MIC, Miscellaneous Streptococcus and nontypeable strains: (0.016)
[5]; single-dose dalbavancin
  clinical success rate at FU in patients with MRSA: 50%
  rate of eradication for MRSA: 50%
[5]; two-dose dalbavancin
  clinical success rate at FU in patients with MRSA: 80%
  rate of eradication for MRSA: 80%
[6]; human
  average difference of effect on QTc values versus vancomycin group: 7 ms
[6]
  impact on heart rate, atrioventricular conduction or intra-ventricular conduction: did not exhibit any impact
[7]; Mild Hepatic Impairment
  t1/2: 323 (27) h
[7]; Moderate Hepatic Impairment
  t1/2: 320 (24) h
[7]; Normal Hepatic Function
  t1/2: 321 (24) h
[7]; Severe Hepatic Impairment
  t1/2: 322 (68) h
[8]
  premature discontinuation of treatment due to an AE: No dalbavancin-treated patient discontinued treatment prematurely due to an AE
